The record followed here is the OPERA property sets (Mansouri et al. 2018).

The structures appear in SMILES notation.

The logP is a log measure of how a compound divides between an organic and an aqueous phase.

On to `CCOc1cnc(-c2ccccc2)c(-c2ccccc2)n1`, for which the logP was determined as 4.73.
On to `c1ccc(-c2cnccn2)cc1`, for which the logP came out at 2.07.
The compound `[O-][n+]1ccnc(-c2ccc(Br)cc2)c1-c1ccc(Br)cc1` had a lipophilicity (logP) of 3.41.
`COc1ccccc1Cc1cnc(-c2ccccc2)c(-c2ccccc2)n1`: the lipophilicity (logP) was 5.18.
Next, `CC(C)c1cnc(-c2ccccc2)c(-c2ccccc2)n1`: 4.71; `COc1cnc(-c2ccccc2)c(-c2ccccc2)n1`: 4.21; `Cc1nc(Cl)c(C)nc1Cl`: 2.4.
`COc1ccc(-c2nc(C)c(C)nc2-c2ccc(OC)cc2)cc1` showed a log partition coefficient (logP) of 4.1.
Regarding `Cc1cnc(-c2ccccc2)c(-c2ccccc2)n1`, the logP came to 3.52.
`Cc1ccc(-c2nccnc2-c2ccc(C)cc2)cc1` registered a logP of 4.1.
As for `Cc1ncc(C)[n+]([O-])c1Cl`, the logP was 0.19.
Next, `c1ccc(-c2nccnc2-c2ccccc2)cc1`: 3.19.
`COC(=O)c1cnc(-c2ccc(OC)cc2)c(-c2ccc(OC)cc2)n1` registered a logP of 3.41.
In turn, `Cc1c[n+]([O-])c(C)c(Cl)n1` gave a logP of 0.44.
Regarding `CCc1cnc(-c2ccc(OC)cc2)c(-c2ccc(OC)cc2)n1`, the logP turned out to be 4.22.
Turning to `CCOc1cnc(-c2ccc(OC)cc2)c(-c2ccc(OC)cc2)n1`, the logP was found to be 5.
As for `Cc1ncc(-c2ccccc2)nc1-c1ccccc1`, the log partition coefficient (logP) stood at 4.29.
In the case of `[O-][n+]1cc(Cl)nc(-c2ccc(Cl)cc2)c1-c1ccc(Cl)cc1`, the logP amounted to 3.66.
For `CCc1ncc(-c2ccccc2)nc1-c1ccccc1`, the log partition coefficient (logP) stood at 4.66.
As to `COc1ccc(-c2ncc(Cl)nc2-c2ccc(OC)cc2)cc1`, the log partition coefficient (logP) worked out at 4.3.
The same measure for `Cc1nc(-c2ccccc2)cnc1-c1ccccc1`: 4.28; for `COc1cccc(Cc2cnc(-c3ccccc3)c(-c3ccccc3)n2)c1`: 5.2.
For the compound `COc1ccc(-c2ncc(C)nc2-c2ccc(OC)cc2)cc1`, the log partition coefficient (logP) came to 3.66.
`CCc1nc(CC)c(-c2ccccc2)nc1-c1ccccc1` displayed a logP of 4.83.
Consider `COc1ccc(-c2ncc(OC)nc2-c2ccc(OC)cc2)cc1`, for which the lipophilicity (logP) came out at 4.47.
The compound `Cc1cnc(-c2ccc(C#N)cc2)c(-c2ccc(C#N)cc2)n1` registered a logP of 2.52.
As to `Clc1cnc(-c2ccccc2)c(-c2ccccc2)n1`, the logP was found to be 4.05.
On to `Cc1cnc(-c2ccc(F)cc2)c(-c2ccc(F)cc2)n1`, for which the logP came to 3.75.
`COc1ccc(-c2cnccn2)cc1` gave a log partition coefficient (logP) of 2.24.
Regarding `Cc1nc(Cl)c(C)[n+]([O-])c1Cl`, the logP was found to be 1.08.
Consider `COc1ccc(-c2nccnc2-c2ccc(OC)cc2)cc1`, for which the logP stood at 3.42.
`COc1ccc(-c2ncc(C#N)nc2-c2ccc(OC)cc2)cc1` yielded a logP of 3.7.
